From patent publication US20190022117A1, “COMBINATION THERAPY” (NuCana plc, priority 2015, published 2019)
Read-outs that look alike come from different tables or passages of the source. One block for each compound: values may come before it.

How the values were obtained:
SK-OV3 = assay: CellTiter-Glo cytotoxicity assay, single agents (Stage 1); assay type: cell-based
Experimental: (§1) A2780, SK-OV-3, OVCAR-3, NCI-H460, NCI-H1975, NCI-H2122, 5637 and HT1376 were cultured in RPMI Medium 1640 (Invitrogen-22400105) supplemented with 10% fetal bovine serum (FBS; Invitrogen-10099141). All the cell lines were maintained in a humidified incubator at 37° C. with 5% CO2. Cell culture media and supplements were purchased from Invitrogen, and tissue culture flasks were purchased from Corning, 96-well plates and 384-well plates were purchased from Greiner. CellTiter-Glo Luminescent Cell Viability Assay kits were purchased from Promega (Promega-G7573), cells counter Vi-Cell was purchased from Beckman, detection instrument Envision was purchased from PerkinElmer.
(§2) Paclitaxcel (used as a reference) and cisplatin were purchased from SELLECK, and they were of highest purity available. All compounds attained solubility in DMSO and when diluted into culture media. DMSO, compounds solutions and culture media were warmed to 37° C. for the solution preparation and dilutions.
(§3) Eight cell lines were allowed to adhere to 96-well plates overnight (100 μL/well), for drug treatments with 3.16 fold dilution, 9 dose points, triplicates or vehicle control, compound stock solutions were prepared in DMSO and added to the wells to give the indicated final drug concentrations. Final DMSO concentration was 0.5%. Cellular ATP concentrations were assessed by using the CellTiter-Glo Cell Viability Assay as per the manufacturer's instructions 72 h after drug addition.
(§4) In Stage 1 the IC50 (using 5 or more concentrations) of each individual compound (cisplatin, gemcitabine and NUC-1031) in the relevant cell lines was determined.

HT1376 = assay: as above; assay type: cell-based
Experimental: as §1, §2, §3, §4

A2780 = assay: as above; assay type: cell-based; conditions: CTG assay 72 h
Experimental: as §1, §2, §3, §4

NCI-H460 = assay: as above; assay type: cell-based; conditions: CTG assay 72 h
Experimental: as §1, §2, §3, §4

NCI-H1975 = assay: as above; assay type: cell-based; conditions: CTG assay 72 h
Experimental: as §1, §2, §3, §4

OVCAR-3 = assay: as above; assay type: cell-based; conditions: CTG assay 72 h
Experimental: as §1, §2, §3, §4

5637 = assay: as above; assay type: cell-based; conditions: CTG assay 72 h
Experimental: as §1, §2, §3, §4

HT1376 (Bladder) = assay: CellTiter-Glo combination analysis (Stage 2); assay type: cell-based; conditions: cisplatin alone dose-effect curve
Experimental: A2780, SK-OV-3, OVCAR-3, NCI-H460, NCI-H1975, NCI-H2122, 5637 and HT1376 were cultured in RPMI Medium 1640 (Invitrogen-22400105) supplemented with 10% fetal bovine serum (FBS; Invitrogen-10099141). All the cell lines were maintained in a humidified incubator at 37° C. with 5% CO2. Cell culture media and supplements were purchased from Invitrogen, and tissue culture flasks were purchased from Corning, 96-well plates and 384-well plates were purchased from Greiner. CellTiter-Glo Luminescent Cell Viability Assay kits were purchased from Promega (Promega-G7573), cells counter Vi-Cell was purchased from Beckman, detection instrument Envision was purchased from PerkinElmer. 8 cell lines were allowed to adhere to 384 well plates overnight (60 μL/well), for combination study, four combinations of two compounds will be investigated twice, keeping one compound at a fixed concentration while increasing the concentration of the second compound (10 fold dilution, 5 dose points), compound stock solutions were prepared in DMSO and added to the wells to give the indicated final drug concentrations by D300e digital dispenser. […] Cellular ATP concentrations were assessed by using the CellTiter-Glo Cell Viability Assay as per the manufacturer's instructions 72 hours after drug addition. Stage 2 determined the interaction of selected combinations of compounds on cancer cell growth. […]

SKOV3 cells = assay: Sulforhodamine B (SRB) assay, single agent; assay type: cell-based; conditions: SRB assay on day 4, read-out: IC50
Experimental: SKOV3 cells were purchased from American Type Culture Collection (ATCC). They were cultured at 37° C. and 5% CO2 in Gibco™ RMPI Medium 1640+GlutaMAX™-I (Life Technologies; 61870-010) with 10% Gibco™ FBS (Life Technologies; 10270-106) and 1% Gibco™ Penicillin-Streptomycin (Life Technologies; Ser. No. 15/140,122), known as complete medium, in a cell culture flask. Cisplatin was purchased from TEVA UK Limited (PL 00289/1146). Fluvastatin and Sulforaphane were both purchased from Merck Millipore Corporation (Catalogue numbers 344096 and 574215 respectively). (S)-NUC-1031 was provided by NuCana® Ltd.
SKOV3 cells were plated at 250 cells in 200 μl per well in the middle 60 wells of Costar® 3596 96-well plates, with the outer 36 wells filled with 200 μl PBS each. The cells were allowed to grow in complete medium for 48 hours before different drug compounds were added in. For single agent, cisplatin, (S)-NUC-1031, fluvastatin and sulforaphane in complete medium at 10 different concentrations were added into the middle 60 wells (Day 0). Each concentration was loaded in sextuplicate. Cells were exposed to the compounds for 24 hours and the compounds were replaced by pure complete medium. The experiment with fluvastatin was repeated with 4-day exposure instead of 24 hours. The plates were fixed with 50 μl 25% TCA solution at 4° C. for 60 minutes on day 4 after the drug compounds were added for Sulforhodamine B assay (see below).
After adding the TCA solution, the plates were washed under running tap water 10 times and were allowed to dry in the oven at 50° C. The cells were then stained with 50 μl SRB dye, and the dye was washed off with 1% glacial acetic acid for 4 times 30 minutes after SRB addition. The plates were then dried in the oven. SRB dye was allowed to dissolve in 150 μl 10 mM Tris buffer solution for 60 minutes on a rocker. The plates were read on Biohit BP800 Microplate Reader (Biohit Healthcare) and the absorbance was measured at 540 nm. […]

biliary tract cancer = conditions: cited from earlier work
[1] = CTG assay 72 h, absolute IC50, read-out: Ab IC50
[2] = CTG assay 72 h, relative IC50, read-out: IC50
[3] = absolute IC50, read-out: Ab IC50
[4] = Homo sapiens, absolute IC50, read-out: Ab IC50
[5] = Homo sapiens, relative IC50, read-out: IC50

SMILES: N.N.[Cl][Pt][Cl] [Cisplatin, cisplatin]
- Max Inhibition_% (SK-OV3; CTG assay 72 h): 86.42%
- IC50 (SK-OV3; [1]): 45.6 µM
- IC50 (SK-OV3; [2]): 33.7 µM
- Max Inhibition_% (HT1376; CTG assay 72 h): 71.90%
- IC50 (HT1376; [1]): 20.5 µM
- IC50 (HT1376; [2]): 18.4 µM
- Max Inhibition_% (A2780): 99.05%
- IC50 (A2780; [3]): 11 µM
- IC50 (A2780; relative IC50, read-out: IC50): 10.1 µM
- Max Inhibition_% (NCI-H460): 97.56%
- IC50 (NCI-H460; [3]): 2590 nM
- IC50 (NCI-H460; relative IC50, read-out: IC50): 2570 nM
- Max Inhibition_% (NCI-H1975): 103.60%
- IC50 (NCI-H1975; [3]): 69.5 µM
- IC50 (NCI-H1975; relative IC50, read-out: IC50): 69.2 µM
- Max Inhibition_% (OVCAR-3): 79.59%
- IC50 (OVCAR-3; [3]): 28.3 µM
- IC50 (OVCAR-3; relative IC50, read-out: IC50): 23.5 µM
- Max Inhibition_% 5637: 101.74%
- IC50 5637; [3]: 13.7 µM
- IC50 (5637; relative IC50, read-out: IC50): 13.2 µM
- IC50 (HT1376 (Bladder); listed as Cisplatin 2, read-out: IC50 (curve shift method)): 58 µM
- IC50 (HT1376 (Bladder); read-out: IC50 (curve shift method)): 64.5 µM
- IC50 (SKOV3 cells; 24 hours exposure): 2.44 µM

- IC50 (SKOV3 cells; Homo sapiens, SK-OV-3, 24 hours exposure): 7 µM
SMILES: C[S+]([O-])CCCCN=C=S (stereo not drawn) [sulforaphane, Sulforaphane]

SMILES: Nc1ccn([C@@H]2O[C@H](CO)[C@@H](O)C2(F)F)c(=O)n1 [Gemcitabine]
- Max Inhibition_% (SK-OV3; CTG assay 72 h): 65.74%
- IC50 (SK-OV3; Homo sapiens, SK-OV-3, CTG assay 72 h, absolute IC50, read-out: Ab IC50): 0.02 µM
- IC50 (SK-OV3; Homo sapiens, SK-OV-3, CTG assay 72 h, relative IC50, read-out: IC50): 0.02 µM
- Max Inhibition_% (HT1376; CTG assay 72 h): 9.60%
- IC50 (HT1376; Homo sapiens, HT-1376, CTG assay 72 h, absolute IC50, read-out: Ab IC50): > 1.98 µM
- IC50 (HT1376; Homo sapiens, HT-1376, CTG assay 72 h, relative IC50, read-out: IC50): > 1.98 µM
- Max Inhibition_% (A2780): 81.15%
- IC50 (A2780; [4]): 0.01 µM
- IC50 (A2780; [5]): 0.01 µM
- Max Inhibition_% (NCI-H460): 96.28%
- IC50 (NCI-H460; [4]): 10 nM
- IC50 (NCI-H460; [5]): 10 nM
- Max Inhibition_% (NCI-H1975): 62.12%
- IC50 (NCI-H1975; [4]): 0.08 µM
- IC50 (NCI-H1975; [5]): 0.02 µM
- Max Inhibition_% (OVCAR-3): 6.95%
- IC50 (OVCAR-3; [4]): > 1.98 µM
- IC50 (OVCAR-3; [5]): 0.02 µM
- Max Inhibition_% 5637: 84.49%
- IC50 5637; [3]: 0.01 µM
- IC50 (5637; relative IC50, read-out: IC50): 0.01 µM
- overall survival (median) (biliary tract cancer; ABC-02, 410 patients with BTC): 8.1 months
- progression-free survival (median) (biliary tract cancer; ABC-02, patients with BTC): 5 months
